{"source": "patent US9585957B2", "about": "“Adenosine receptor agonists and antagonists to modulate T cell responses” (THE JOHNS HOPKINS UNIVERSITY, priority 2007, dated 2017)", "key": {"[1]": {"test_system": "A.E7 T cell clones", "assay": "Cytokine production and CD25 expression of A.E7s stimulated with anti-CD3 and anti-CD28 in the presence of CGS", "format": "cell-based", "conditions": "for IC50: T-cell", "experimental": "Studies were conducted to determine the effects of A2a receptor stimulation on T cell function. A.E7 is a clonotypic CD4', Th1 T cell clone specific for pigeon cytochrome c (PCC) and is maintained as previously described (Powell, […]. & Schwartz, R. H. Inhibition of cell cycle progression by rapamycin induces T cell clonal anergy even in the presence of costimulation. J Immunol 162, 2775-84 (1999)). A.[…] were rendered anergic with anti-CD3 or by incubation with APC, PCC and 1 pM CGS-21680. For antibody induced anergy, 6-well plates were previously coated with anti-CD3 three hours prior to stimulation and washed with PBS. For mock stimulations, the well was not coated with anti-CD3. A.[…] were incubated in the coated well overnight at 37° C., then harvested and washed extensively and rested (24 hours for CAMP measurement, 4-6 days for proliferation and cytokine production). […] To assess proliferation to PCC, T cells were extensively washed and 5×10^6 cells were added to 50×10^4 irradiated BIO.A splenocytes and increasing doses of PCC in triplicate in a 96-well flat-bottomed plate. After 48 hours, cells were pulsed with [^3H] thymidine and harvested 16 hrs later. Tritium incorporation was determined by a Packard Matrix 96 direct beta counter (Packard bioscience). […] All conditions were done in triplicate and were cultured overnight. Supernatant was collected and assessed for cytokine levels (eBioscience for IL-2, IFN-y, TNF-a; R&D Systems for GM-CSF) as per manufacturers' instructions. For each sample, multiple dilutions of the supernatant were assayed and concentration was determined based upon the dilution that best fit the most linear aspect of the standard curve. For CD25 measurements, the cells used for cytokine production were stained with anti-CD25, harvested and measured by flow cytometry."}, "[2]": {"test_system": "6.5+ T cells in C3HA mice", "assay": "Ex vivo tolerance studies: in vitro rechallenge of T cells harvested from vehicle- or CGS-treated C3HA mice", "experimental": "1.2×10^6 clonotypic 6.5^+ T cells were adoptive transferred into C3HA recipient mice as described above. On the second or third day (as noted) after transfer the splenocytes and lymphocytes were harvested and pooled. 2×10^5 of the pooled cells were incubated in 96-well round bottom plates with varying concentrations of HA class II peptide for 24 hours. A portion of the supernatant were withdrawn and later assayed for IL-2 and IFN-γ productions by ELISA. The wells were then pulsed with [^3H]thymidine for 16 hours and proliferation determined by tritium incorporation, as described above. All samples were performed in triplicate."}, "[3]": {"test_system": "LAG-3", "assay": "LAG-3 expression by RT-PCR in 6.5+ T cells sorted from CGS-treated C3HA mice", "format": "in vivo", "conditions": "T cells from CGS-treated versus vehicle-treated C3HA mice (FIG. 5a)", "experimental": "For in vivo studies, recipient C3HA mice were given 1.2×10^6 6.5^+ donor T cells as described above. On Day 3, donor T cells were sorted and cDNA generated as above. RT-PCR was performed as previously described (Safford et al. Nat Immunol. 2005; 6:472-480).\nRecipient mice are given 1.2×10^6 donor T cells as described above. On Day 4, cells from spleens and lymph nodes are harvested and pooled. They are enriched for CD4^+ T cells via negative selection using biotinylated anti-CD8 (Ly-2, 53-6.7), anti-B220 (RA3-6B2) and anti-Thy 1.2(30-H12) antibodies (all from BD Biosciences PharMingen), and MACS streptavidin microbeads and AutoMACS column (Miltenyi Biotech) to deplete CD8^+ T cells, B cells and recipient cells (Thy 1.2′). The remaining cells are then sorted on Thy 1. I and CD4 using FACSAria cell sorter to yield a CD4′, 6.5′ T cell population of greater than 95% purity. RT-PCR was performed as previously described’."}}, "note": "Like-named read-outs stand apart in the source and are kept apart here."}
{"compound": "CCNC(=O)[C@H]1O[C@@H](n2cnc3c(N)nc(NCCc4ccc(CCC(=O)O)cc4)nc32)[C@H](O)[C@@H]1O", "note": "[CGS, 2-p-(2-carboxyethyl)phenethyl-amino-5-N-ethyl-carboxamidoadenosine]", "values": [{"measurement": "cytokine production", "setting": "[1]; A.E7 T cell clones activated with anti-CD3 and anti-CD28 in the presence of CGS", "value": "dose-dependent inhibition"}, {"measurement": "IC50", "setting": "[1]; read-out: ID50, inhibition of GM-CSF production", "value": 9.1, "unit": "nM"}, {"measurement": "IC50", "setting": "[1]; read-out: ID50, inhibition of IFN-γ production", "value": 760, "unit": "nM"}, {"measurement": "IC50", "setting": "[1]; read-out: ID50, inhibition of IL-2 production", "value": 4.7, "unit": "nM"}, {"measurement": "IC50", "setting": "[1]; read-out: ID50, inhibition of TNF-α production", "value": 100, "unit": "nM"}, {"measurement": "production of the chemokine MIP-1α", "setting": "[1]; anti-CD3 and anti-CD28, 20 nM CGS (FIG. 1d)", "value": "not inhibited"}, {"measurement": "TCR-induced CD25 expression", "setting": "[1]; anti-CD3 and anti-CD28, 1 μM CGS (FIG. 1b)", "value": "did not inhibit"}, {"measurement": "IL-2 production", "setting": "[1]; anti-CD3 and anti-CD28 in the presence of the A2a receptor agonist, 20 nM CGS (FIG. 1d)", "value": "markedly decreased"}, {"measurement": "proliferation and cytokine production of harvested cells, two days after adoptive transfer", "setting": "[2]; CGS-treated versus vehicle-treated mice, no CGS during rechallenge", "value": "equal proliferation and cytokine production"}, {"measurement": "proliferation following in vitro stimulation, Day 3", "setting": "[2]; T cells from CGS-treated versus vehicle-treated mice, no CGS during rechallenge (FIG. 4b)", "value": "significant reduction in proliferation"}, {"measurement": "IFN-γ production following in vitro stimulation, Day 3", "setting": "[2]; T cells from CGS-treated versus vehicle-treated mice, no CGS during rechallenge (FIG. 4c)", "value": "significant reduction"}, {"measurement": "kinetics of LAG-3 expression in T cells", "setting": "[3]", "value": "quicker and more robust"}]}
